Experimental data: PMC3681751, “Identification of a Novel Antimicrobial Peptide from Human Hepatitis B Virus Core Protein Arginine-Rich Domain (ARD)” (PLoS Pathogens, 2013)
≈ marks a conversion by molar mass, not a printed value. Read-outs that look alike come from different tables or passages of the source. Residues, ends and D or L forms follow the SMILES beside them.

Legend:
[1] = system: P. aeruginosa NHRI-02; format: cell-based, Pseudomonas aeruginosa; details: NHRI-02, 3 h
From the text: (§1) Clinical isolates of Pseudomonas aeruginosa (NHRI-01, NHRI-02 and NHRI-04) were obtained through the program of Taiwan Surveillance of Antimicrobial Resistance (TSAR), National Health Research Institutes (NHRI), Taiwan. Acinetobacter baumannii (ATCC 17989, ATCC 17978 CR, ATCC19606, ATCC 19606 CR, TCGH 45530 and TCGH 46709) were obtained from Tzu-Chi Buddhist General Hospital (TCGH) in Taiwan, and clinical isolates (TCGH 45530 and TCGH 46709) were identified using the Vitek system (Biomerieux Vitek, Inc., Hazelwood, MO, USA). A. baumannii is defined as multidrug-resistant, when the organism is resistant to piperacillin, piperacillin-tazobactam, ampicillin/sulbactam, imipenem, ceftazidime, gentamicin, amikacin, tetracycline, chloramphenicol, ciprofloxacin, and cotrimoxazole. Susceptibility to colistin was determined using the broth-dilution method, in accordance with the guidelines of the Clinical and Laboratory Standards Institute (CLSI).
(§2) All peptides were purchased from Yao-Hong Biotechnology Inc. (Taipei, Taiwan). Vendors provided data of peptide characterizations, including HPLC and Mass (data not shown). Antimicrobial activity was determined as described with some modifications as detailed below. Bacteria were grown overnight in Mueller–Hinton broth (Difco) at 37°C, and during the mid-logarithmic phase, bacteria were diluted to 10^6 CFU (colony formation unit)/ml in phosphate buffer (10 mM sodium phosphate and 50 mM sodium chloride, pH 7.2). Peptides were serially diluted in the same buffer. Fifty microliter (µl) of bacteria was mixed with fifty µl of peptides at varying concentrations followed by incubation at 37°C for 3 hours without shaking. At the end of incubation, bacteria were placed on Mueller-Hinton broth agar plates, and allowed growth at 37°C overnight for measurement of minimal bactericidal concentration (MBC). […] All peptides were tested in triplicate.

[2] = system: P. aeruginosa NHRI-04; format: cell-based, Pseudomonas aeruginosa; details: NHRI-04, 3 h
From the text: as §1, §2

[3] = system: P. aeruginosa NHRI-01; format: cell-based, Pseudomonas aeruginosa; details: colistin-resistant P. aeruginosa of Table 2
From the text: as §1, §2

[4] = system: S. aureus; assay: SYTOX Green uptake (membrane permeabilization); format: cell-based, Staphylococcus aureus; details: 4 µM peptide; 10^7 CFU, 1 µM SYTOX Green, 37°C
Description: (§3) Briefly, bacteria (10^7 CFU) were prepared and mixed with 1 µM SYTOX Green (Invitrogen) for 15 minutes in the dark. […] Melittin (Sigma), the major toxin of bee venom, was used as a positive control to provide maximal permeabilization.

[5] = system: E. coli; assay: Killing kinetics; format: cell-based, Escherichia coli; details: 4 µM peptide (1×MBC), 37°C, triplicates
Description: For measurement of killing kinetics, bacteria and peptides were prepared as described above. Fifty µl of bacteria were mixed with fifty µl of peptides at the concentrations corresponding to MBC and were incubated at 37°C. At the indicated time, bacteria were serially diluted and placed on Mueller-Hinton broth agar plates for the viability measurement.

[6] = system: Huh 7 cells; assay: Peptide uptake into mammalian cells; format: cell-based, human; details: data not shown
[7] = system: K. pneumonia; assay: SYTOX Green uptake (membrane permeabilization); format: cell-based, Klebsiella pneumoniae; details: 4 µM peptide; 10^7 CFU, 1 µM SYTOX Green, 37°C
Description: as §3

[8] = system: S. aureus (ATCC 19636); format: cell-based, Staphylococcus aureus
Outline: (§4)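 Mid-log bacteria at 10^6 CFU/ml in 10 mM sodium phosphate, 50 mM NaCl, pH 7.2, exposed to serially diluted HBc ARD peptides for 3 h at 37 °C without shaking. Mixtures plated on Mueller-Hinton agar overnight to give minimal bactericidal concentration; triplicate tests.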

[9] = system: S. aureus (ATCC 29213); format: cell-based, Staphylococcus aureus
Outline: as §4

[10] = system: S. aureus (ATCC 25923); format: cell-based, Staphylococcus aureus
Outline: as §4

[11] = system: Huh7 cells; assay: Cytotoxicity, MTT assay; format: cell-based, human; details: 1 hour at 37°C; HBc147-183 at 100 µM, melittin at 3.125 µM; triplicates
Description: (§5) Cytotoxicity was measured for HepG2, Huh7, HEK293, and Vero cells by MTT assay. Cells were seeded at 10^4 cells/well in a 96-well plate and serial dilutions of peptides were added into each well. PBS was used as a negative control and melittin was used as a positive control. After 1 hour of incubation, the medium were replaced by fresh medium containing 10% MTT solution (Promega), and the plate was incubated for 4 hours in 5% CO2 at 37°C. The absorbance at the wavelength of 595 nm was measured by an ELISA reader (Bio-Rad model 680).

[12] = system: HEK293 cells; assay: Cytotoxicity, MTT assay; format: cell-based, human; details: 1 hour at 37°C; HBc147-183 at 100 µM, melittin at 3.125 µM; triplicates
Description: as §5

[13] = system: HepG2 cells; assay: Cytotoxicity, MTT assay; format: cell-based, human; details: 1 hour at 37°C; HBc147-183 at 100 µM, melittin at 3.125 µM; triplicates
Description: as §5

[14] = system: P. aeruginosa (ATCC 27853); format: cell-based, Pseudomonas aeruginosa
Outline: as §4

[15] = system: P. aeruginosa (ATCC 9027); format: cell-based, Pseudomonas aeruginosa
Outline: as §4

[16] = system: pSUPER plasmid DNA; assay: Gel retardation assay (DNA binding); details: 30 minutes at 37°C, 1% agarose gel; N/P = peptide amino nitrogen / DNA phosphate
Description: The proportion between amino nitrogen (NH3 ^+) of HBc147-183 and phosphate (PO4 ^−) of DNA was defined as N/P ratio [35]. Briefly, HBc147-183 was incubated with pSUPER plasmid DNA at different N/P ratio (0, 0.2, 0.4, 0.6, 0.8, 1, 2, 3 and 4) for 30 minutes at 37°C. The mobility of pSUPER plasmid DNA was analyzed by electrophoresis on 1% agarose gel.

[17] = methicillin-resistant strain, 3 h at 37°C in phosphate buffer pH 7.2, triplicate
[18] = ampicillin-resistant strain, 3 h at 37°C in phosphate buffer pH 7.2, triplicate

CC(C)[C@H](NC(=O)[C@@H](NC(=O)[C@@H](N)[C@@H](C)O)C(C)C)C(=O)N[C@@H](CCCNC(=N)N)C(=O)N[C@@H](CCCNC(=N)N)C(=O)N[C@@H](CCCNC(=N)N)C(=O)NCC(=O)N[C@@H](CCCNC(=N)N)C(=O)N[C@@H](CO)C(=O)N1CCC[C@H]1C(=O)N[C@@H](CCCNC(=N)N)C(=O)N[C@@H](CCCNC(=N)N)C(=O)N[C@@H](CCCNC(=N)N)C(=O)N[C@H](C(=O)N1CCC[C@H]1C(=O)N[C@@H](CO)C(=O)N1CCC[C@H]1C(=O)N[C@@H](CCCNC(=N)N)C(=O)N[C@@H](CCCNC(=N)N)C(=O)N[C@@H](CCCNC(=N)N)C(=O)N[C@@H](CCCNC(=N)N)C(=O)N[C@@H](CO)C(=O)N[C@@H](CCC(N)=O)C(=O)N[C@@H](CO)C(=O)N1CCC[C@H]1C(=O)N[C@@H](CCCNC(=N)N)C(=O)N[C@@H](CCCNC(=N)N)C(=O)N[C@@H](CCCNC(=N)N)C(=O)N[C@@H](CCCNC(=N)N)C(=O)N[C@@H](CO)C(=O)N[C@@H](CCC(N)=O)C(=O)N[C@@H](CO)C(=O)N[C@@H](CCCNC(=N)N)C(=O)N[C@@H](CCC(=O)O)C(=O)N[C@@H](CO)C(=O)N[C@@H](CCC(N)=O)C(=O)N[C@@H](CS)C(=O)O)[C@@H](C)O [HBc147-183] (H-TVVRRRGRSPRRRTPSPRRRRSQSPRRRRSQSRESQC-OH; N-terminus and C-terminus assumed)
MBC against colistin-sensitive P. aeruginosa [1]: 4 µM (≈ 18.4 µg/mL) | MBC [2]: 18.36 µg/mL (≈ 4 µM) | MBC against colistin-resistant P. aeruginosa [3]: > 16 µM | Membrane permeabilization (SYTOX Green uptake) [4]: not able to induce membrane permeabilization | Time to complete killing [5]: 180 min | Penetration through the cell membrane [6]: can penetrate through the cell membrane | Membrane permeabilization (SYTOX Green uptake) [7]: not able to induce membrane permeabilization | MBC against S. aureus ([8]; ATCC 19636, 3 h): around 4 µM | Antimicrobial activity, MBC ([8]; ATCC 19636, 3 h, pH 7.2): 4 µM | Antimicrobial activity, MBC [8, 17]: 18.36 µg/mL | Antimicrobial activity, MBC ([9]; ATCC 29213, 3 h, pH 7.2): 4 µM | Antimicrobial activity, MBC [9, 17]: 18.36 µg/mL | Antimicrobial activity, MBC ([10]; ATCC 25923, 3 h, pH 7.2): 4 µM | Antimicrobial activity, MBC [10, 17]: 18.36 µg/mL | Cell viability / cytotoxicity (MTT) [11]: low level of cytotoxicity | Cell viability / cytotoxicity (MTT) [12]: low level of cytotoxicity | Cell viability / cytotoxicity (MTT) [13]: low level of cytotoxicity | Antimicrobial activity, MBC ([14]; ATCC 27853, 3 h, pH 7.2): 2 to 4 µM | Antimicrobial activity, MBC [14, 18]: 9.18 to 18.36 µg/mL | MBC against P. aeruginosa ([15]; ATCC 9027, 3 h): lower than 4 µM | Antimicrobial activity, MBC ([15]; ATCC 9027, 3 h, pH 7.2): 2 µM | Antimicrobial activity, MBC [15, 18]: 9.18 µg/mL | N/P ratio at which plasmid DNA was completely retarded [16]: 1
